Measured values as given in patent US20220095618A1, “HERBICIDAL COMPOSITIONS” (SYNGENTA CROP PROTECTION AG, priority 2019, published 2022).

Legend:
Experiment in all cases: Post-emergence efficacy of compounds of Formula (I) (B1), glasshouse
Assay type in all cases: in vivo
[1] = system: Chenopodium album (CHEAL); settings: Application Rate 500 g/Ha, evaluated after 13 days; for pest or weed control at 500 g/ha: Chenopodium album, post-emergence, 312 h, read-out: Control of CHEAL after post-emergence application (100=total damage to plant; 0=no damage to plant)
Procedure: (§1) Seeds of a variety of test species were sown in standard Iaom-based soil in pots:— Ipomoea hederacea (IPOHE), Euphorbia heterophylla (EPHHL), Chenopodium album (CHEAL), Amaranthus palmeri (AMAPA), Lolium perenne (LOLPE), Digitaria sanguinalis (DIGSA), Eleusine indica (ELEIN), Echinochloa crus-galli (ECHCG), Setaria faberi (SETFA). After cultivation for 14 days (post-emergence) under controlled conditions in a glasshouse (at 24/16° C., day/night; 14 hours light; 65% humidity), the plants were sprayed with an aqueous spray solution derived from the dissolution of the technical active ingredient Formula (I) in a small amount of acetone and a special solvent and emulsifier mixture referred to as IF50 (11.12% Emulsogen EL360 TM+44.44% N-methylpyrrolidone+44.44% Dowanol DPM glycol ether), to create a 50 g/I solution which was then diluted to required concentration using 0.25% or 1% Empicol ESC70 (Sodium lauryl ether sulphate)+1% ammonium sulphate as diluent. The delivery of the aqueous spray solution was via a laboratory track sprayer which delivered the aqueous spray composition at a rate of 200 litres per hectare, using a flat fan nozzle (Teejet 11002VS) and an application volume of 200 litre/ha (at 2 bar).
(§2) The test plants were then grown in a glasshouse under controlled conditions (at 24/16° C., day/night; 14 hours light; 65% humidity) and watered twice daily. After 13 days the test was evaluated (100=total damage to plant; 0=no damage to plant).

[2] = system: Ipomoea hederacea (IPOHE); settings: Application Rate 500 g/Ha, evaluated after 13 days; for pest or weed control at 500 g/ha: Ipomoea hederacea, post-emergence, 312 h, read-out: Control of IPOHE after post-emergence application (100=total damage to plant; 0=no damage to plant)
Procedure: as §1, §2

[3] = system: Euphorbia heterophylla (EPHHL); settings: Application Rate 500 g/Ha, evaluated after 13 days; for pest or weed control at 500 g/ha: Euphorbia heterophylla, post-emergence, 312 h, read-out: Control of EPHHL after post-emergence application (100=total damage to plant; 0=no damage to plant)
Procedure: as §1, §2

[4] = system: Echinochloa crus-galli (ECHCG); settings: Application Rate 500 g/Ha, evaluated after 13 days; for pest or weed control at 500 g/ha: Echinochloa crus-galli, post-emergence, 312 h, read-out: Control of ECHCG after post-emergence application (100=total damage to plant; 0=no damage to plant)
Procedure: as §1, §2

Lolium perenne (LOLPE) = settings: Application Rate 500 g/Ha, evaluated after 13 days; for pest or weed control at 500 g/ha: Lolium perenne, post-emergence, 312 h, read-out: Control of LOLPE after post-emergence application (100=total damage to plant; 0=no damage to plant)
Procedure: as §1, §2

Setaria faberi (SETFA) = settings: Application Rate 500 g/Ha, evaluated after 13 days; for pest or weed control at 500 g/ha: Setaria faberi, post-emergence, 312 h, read-out: Control of SETFA after post-emergence application (100=total damage to plant; 0=no damage to plant)
Procedure: as §1, §2

[5] = system: Digitaria sanguinalis (DIGSA); settings: Application Rate 500 g/Ha, evaluated after 13 days; for pest or weed control at 500 g/ha: Digitaria sanguinalis, post-emergence, 312 h, read-out: Control of DIGSA after post-emergence application (100=total damage to plant; 0=no damage to plant)
Procedure: as §1, §2

Eleusine indica (ELEIN) = settings: Application Rate 500 g/Ha, evaluated after 13 days; for pest or weed control at 500 g/ha: Eleusine indica, post-emergence, 312 h, read-out: Control of ELEIN after post-emergence application (100=total damage to plant; 0=no damage to plant)
Procedure: as §1, §2

[6] = system: Amaranthus palmeri (AMAPA); settings: Application Rate 500 g/Ha, evaluated after 13 days; for pest or weed control at 500 g/ha: Amaranthus palmeri, post-emergence, 312 h, read-out: Control of AMAPA after post-emergence application (100=total damage to plant; 0=no damage to plant)
Procedure: as §1, §2

Row | SMILES | pest or weed control at 500 g/ha [1] [%] | pest or weed control at 500 g/ha [2] [%] | pest or weed control at 500 g/ha [3] [%] | pest or weed control at 500 g/ha [4] [%] | pest or weed control at 500 g/ha (Lolium perenne (LOLPE)) [%] | pest or weed control at 500 g/ha (Setaria faberi (SETFA)) [%] | pest or weed control at 500 g/ha [5] [%] | pest or weed control at 500 g/ha (Eleusine indica (ELEIN)) [%] | pest or weed control at 500 g/ha [6] [%] | Control of CHEAL after post-emergence application (100=total damage to plant; 0=no damage to plant) [1] | Control of IPOHE after post-emergence application (100=total damage to plant; 0=no damage to plant) [2] | Control of EPHHL after post-emergence application (100=total damage to plant; 0=no damage to plant) [3] | Control of ECHCG after post-emergence application (100=total damage to plant; 0=no damage to plant) [4] | Control of SETFA after post-emergence application (100=total damage to plant; 0=no damage to plant) (Setaria faberi (SETFA)) | Control of DIGSA after post-emergence application (100=total damage to plant; 0=no damage to plant) [5] | Control of AMAPA after post-emergence application (100=total damage to plant; 0=no damage to plant) [6] | Control of LOLPE after post-emergence application (100=total damage to plant; 0=no damage to plant) (Lolium perenne (LOLPE)) | Control of ELEIN after post-emergence application (100=total damage to plant; 0=no damage to plant) (Eleusine indica (ELEIN))
1 | O=S(=O)([O-])CC(O)C[n+]1ccc(-c2ncccn2)cn1 (stereo not drawn) [Compound 1.028] | 90 | 30 | 80 | 100 | 70 | 100 | 90 | 100 | 100 |  |  |  |  |  |  |  |  | 
2 | N[C@H](CC[n+]1ccc(-c2ncccn2)cn1)C(=O)O [Compound 1.029, [(1R)-1-carboxy-3-(4-pyrimidin-2-ylpyridazin-1-ium-1-yl)propyl]-ammonium 2,2,2-trifluoroacetate] | 100 | 90 | 90 | 60 | 20 | 100 | 90 | 100 | 100 |  |  |  |  |  |  |  |  | 
3 | N[C@@H](CC[n+]1ccc(-c2ncccn2)cn1)C(=O)O [Compound 1.035, [(1S)-1-carboxy-3-(4-pyrimidin-2-ylpyridazin-1-ium-1-yl)propyl]-ammonium 2,2,2-trifluoroacetate] | 100 | 90 | 90 | 60 | 20 | 100 | 90 | 100 | 100 |  |  |  |  |  |  |  |  | 
4 | COC(=O)CC[n+]1ccc(-c2cnccn2)cn1 [Compound 1.013, methyl 3-(4-pyrazin-2-ylpyridazin-1-ium-1-yl)propanoate chloride] | 90 | 80 | 100 | 80 | 70 | 100 | 100 | 100 | 100 |  |  |  |  |  |  |  |  | 
5 | CC(C)(CC(=O)O)[n+]1ccc(-c2ncccn2)cn1 [Compound 1.025, 3-methyl-3-(4-pyrimidin-2-ylpyridazin-1-ium-1-yl)butanoic acid 2,2,2-trifluoroacetate] | 70 | 50 | 40 | 100 | 30 | 100 | 90 | 100 | 100 |  |  |  |  |  |  |  |  | 
6 | O=C(O)CC[n+]1ccc(-c2ccncn2)cn1 [Compound 1.011] | 100 | 100 | 100 | 90 | 70 | 100 | 90 | 100 | 100 |  |  |  |  |  |  |  |  | 
7 | O=C(CC[n+]1ccc(-c2ncccn2)cn1)Oc1ccccc1 [Compound 1.020] | 80 | 30 | 80 | 90 | 80 | 100 | 100 | 100 | 100 |  |  |  |  |  |  |  |  | 
8 | O=C(O)CC[n+]1ccc(-c2cccnn2)cn1.[Cl-] [Compound 1.027, 3-(4-pyridazin-3-ylpyridazin-1-ium-1-yl)propanoic acid chloride] |  |  |  |  | 100 |  |  | 80 |  | 100 | 30 | 100 | 100 | 100 | 100 | 100 |  | 
9 | O=C(CC[n+]1ccc(-c2ncccn2)cn1)OCc1ccccc1 [Compound 1.018] | 90 | 30 | 100 | 80 | 40 | 100 | 100 | 100 | 90 |  |  |  |  |  |  |  |  | 
10 | CC(C)(C[n+]1ccc(-c2ncccn2)cn1)C(=O)O [Compound 1.022] | 80 | 100 | 100 | 90 | 60 | 100 | 100 | 100 | 100 |  |  |  |  |  |  |  |  | 
11 | O=S(=O)([O-])CC[n+]1ccc(-c2cccnn2)cn1 [Compound 1.002, 2-(4-pyridazin-3-ylpyridazin-1-ium-1-yl)ethanesulfonate] |  |  |  |  |  |  |  |  |  | 100 | 40 | 100 | 100 | 90 | 100 | 100 | 100 | 100
12 | CC(C[n+]1ccc(-c2ncccn2)cn1)S(=O)(=O)[O-] (stereo not drawn) [Compound 1.026, 1-(4-pyrimidin-2-ylpyridazin-1-ium-1-yl)propane-2-sulfonate] | 80 | 70 | 90 | 80 | 80 | 100 | 100 | 100 | 100 |  |  |  |  |  |  |  |  | 
13 | O=S(=O)([O-])CCC[n+]1ccc(-c2ncccn2)cn1 [Compound 1.003, 3-(4-pyrimidin-2-ylpyridazin-1-ium-1-yl)propane-1-sulfonate] | 100 | 60 | 100 | 80 | 60 | 100 | 100 | 100 | 100 |  |  |  |  |  |  |  |  | 
14 | Cl.O=S(=O)([O-])CC[n+]1ccc(-c2cccnn2)cn1 [Compound 1.031, 2-(4-pyridazin-1-ium-3-ylpyridazin-1-ium-1-yl)ethanesulfonate chloride] | 90 |  | 100 | 100 | 90 | 100 | 100 | 100 | 100 |  | 70 |  |  |  |  |  |  | 
